Marks after values point to notes of the source that are not given here.
Assays:
Plasmopara viticola = test: Test D: grape downy mildew, spray after inoculation of grape seedlings; type: in vivo
Excerpt: Upon removal, disease ratings were made. […] A dash (-) indicates no test results.

Phytophthora infestans = test: whole plant or invertebrate; type: in vivo
Septoria tritici = test: Test J: wheat leaf blotch, preventive spray on wheat seedlings; type: in vivo
Excerpt: A dash (-) indicates no test results.

[1] = tested on: Puccinia recondita f. sp. tritici; test: Test K: wheat leaf rust, preventive spray on wheat seedlings
Botrytis cinerea = test: Test E: tomato botrytis, preventive spray on tomato seedlings
Septoria nodorum = test: Test H: wheat glum blotch, preventive spray on wheat seedlings
Method: (the causal agent of wheat glum blotch) and incubated in a saturated atmosphere at 20° C. for 48 h, and then moved to a growth chamber at 22° C. for 5 days, after which disease ratings were made.

[2] = tested on: Erysiphe graminis f. sp. tritici; test: Test L: wheat powdery mildew, preventive spray on wheat seedlings
Sclerotinia sclerotiorum = test: Test C: cucumber white mold, preventive spray on cucumber seedlings
Pythium aphanidermatum = test: Test A: bluegrass pythium blight, preventive spray on bluegrass seedlings
Rhizoctonia oryzae = test: Test G: turf brown patch, preventive spray on creeping bent grass seedlings
Method: (the causal agent of turf brown patch) and incubated in a saturated atmosphere at 27° C. for 24 h, and then moved to a growth chamber at 27° C. for 5 days, after which disease ratings were made.

[3] = tested on: Colletotrichum orbiculare; test: Test B: cucumber Colletotrichum anthracnose, preventive spray on cucumber seedlings

| Compound | Test D disease control rating (Plasmopara viticola; 200 ppm) | Test F disease control rating (Phytophthora infestans; 200 ppm) | Test J disease control rating (Septoria tritici; 200 ppm) | Test K disease control rating ([1]; 200 ppm) | Test E disease control rating (Botrytis cinerea; 200 ppm) | Test H disease control rating (Septoria nodorum; 200 ppm) | Test L disease control rating ([2]; 200 ppm) | Test C disease control rating (Sclerotinia sclerotiorum; 200 ppm) | Test A disease control rating (Pythium aphanidermatum; 200 ppm) | Test G disease control rating (Rhizoctonia oryzae; 200 ppm) | Test B disease control rating ([3]; 200 ppm) | Test D disease control rating (Plasmopara viticola; 40 ppm (*)) | Test F disease control rating (Phytophthora infestans; 40 ppm (*)) | Test J disease control rating (Septoria tritici; 40 ppm (*)) | Test K disease control rating ([1]; 40 ppm (*)) | Test E disease control rating (Botrytis cinerea; 40 ppm (*)) | Test H disease control rating (Septoria nodorum; 40 ppm (*)) | Test L disease control rating ([2]; 40 ppm (*)) | Test C disease control rating (Sclerotinia sclerotiorum; 40 ppm (*)) | Test A disease control rating (Pythium aphanidermatum; 40 ppm (*)) | further results |
| --- | --- | --- | --- | --- | --- | --- | --- | --- | --- | --- | --- | --- | --- | --- | --- | --- | --- | --- | --- | --- | --- |
| Cc1cccc(C)c1-c1c(Cl)nc(-n2cncn2)c(=O)n1CC(C)C [compound 205] | 12% | 0% | 100% | 97% | 100% | 0% | 81% | 0% | 0% | 85% | 0% |  |  |  |  |  |  |  |  |  |  |
| CC(C)Cn1c(C(C)(C)C)c(Cl)nc(-n2cncn2)c1=O [compound 206] | 8% | 0% | 3% | 0% | 0% | 0% | 56% | 0% | 0% | 0% | 0% |  |  |  |  |  |  |  |  |  |  |
| CC(C)Cn1c(C(C)C)c(Cl)nc(-n2cncn2)c1=O [compound 207] | 8% | 0% | 70% | 0% | 50% | 0% | 95% | 0% | 0% | 47% | 0% |  |  |  |  |  |  |  |  |  |  |
| Cc1ccnc(-c2nc(Cl)c(-c3c(F)cccc3F)n(CC(C)C)c2=O)c1 [compound 208] | 12% | 0% | 100% | 88% | 92% | 69% | 0% | 0% | 0% | 0% | 46% |  |  |  |  |  |  |  |  |  |  |
| Cc1cccnc1-c1nc(Cl)c(-c2c(F)cccc2F)n(CC(C)C)c1=O [compound 210] | 16% | 0% | 1% | 0% | 0% | 0% | 0% | 0% | 0% | 0% | 0% |  |  |  |  |  |  |  |  |  |  |
| COC=C(C)n1c(-c2c(F)cccc2F)c(Cl)nc(-n2cccn2)c1=O [compound 211] |  |  |  |  |  |  |  |  |  |  |  | 4* % | 0* % | 25* % | 27* % | 0* % | 0* % | 0* % | 0* % | 0* % | Test G disease control rating (Rhizoctonia oryzae; 40 ppm (*)): 0* %; Test B disease control rating ([3]; 40 ppm (*)): 0* % |
| COC=C(C)n1c(-c2c(F)cccc2F)c(Cl)nc(-n2cncn2)c1=O [compound 212] |  |  |  |  |  |  |  |  |  |  |  | 8* % | 0* % | 0* % | 0* % | 0* % | 0* % | 0* % | 0* % | 0* % | Test G disease control rating (Rhizoctonia oryzae; 40 ppm (*)): 0* %; Test B disease control rating ([3]; 40 ppm (*)): 0* % |
| CC(CO)n1c(-c2c(F)cccc2F)c(Cl)nc(-n2cccn2)c1=O (stereo not drawn) [compound 213] |  |  |  |  |  |  |  |  |  |  |  | 32* % | 0* % | 0* % | 92* % | 41* % | 0* % | 0* % | 0* % | 0* % | Test G disease control rating (Rhizoctonia oryzae; 40 ppm (*)): 0* %; Test B disease control rating ([3]; 40 ppm (*)): 0* % |
| CC(CCl)n1c(-c2c(F)cccc2F)c(Cl)nc(-n2cncn2)c1=O (stereo not drawn) [compound 214] |  |  |  |  |  |  |  |  |  |  |  | 12* % | 0* % | 9* % | 69* % | 0* % | 0* % | 0* % | 0* % | 0* % | Test G disease control rating (Rhizoctonia oryzae; 40 ppm (*)): 0* %; Test B disease control rating ([3]; 40 ppm (*)): 0* % |

Source: US20080194585A1, “Fungicidal Pyrazine Derivatives” (priority 2005, published 2008)
